# Reference: patent US10342804B2, “Steroid compound for use in the treatment of hepatic encephalopathy” (Umecrine Cognition AB, priority 2014, dated 2019)
# Read-outs that look alike come from different tables or passages of the source.
# Key:
# [1] = Fraction unbound in brain homogenates by dialysis; assay type: in vitro ADME; settings: rat, brain homogenate, read-out: Fraction unbound (Fub) in brain homogenates
# Experimental: At the end of the treatment period plasma was collected from the tail vein, and after sacrifice by decapitation brains were collected and immediately frozen on dry ice. For analysis of 3α-ethynyl-3β-hydroxyandrostan-17-one oxime exposure, brain tissue was homogenized with a 1:4 ratio of tissue: PBS (pH 7.4) and then extracted with a 2-fold volume of methanol:acetonitrile (1:1), while plasma was protein-precipitated with a 3-fold volume with acetonitrile. Analyses were performed by Waters ACQUITY UPLC+Waters XEVO-TQS triple quadrupole mass spectrometer (Admescope Oy, Oulu, Finland). For calculations of the amount of free 3α-ethynyl-3β-hydroxyandrostan-17-one oxime exposure in the brain the fraction unbound (Fb) in brain homogenates were determined by dialysis, Fub in HA=[…] and Fub in PCS=1.43% (Admescope Oy, Oulu, Finland).
# blood ammonia = experiment: Blood ammonia, PCS rats (Example 12); assay type: in vivo, rat
# Experimental: (§1) Male Wistar rats (220-240 g) were anesthetized with isoflurane, and an end-to side porta-caval anastomosis was performed as described by Lee and Fisher (Surgery, 1961, 50, 668-672).
# (§2) Rats that were subjected to the porta-caval anastomosis procedure are herein referred to as “PCS rats”.
# (§3) 3α-ethynyl-3β-hydroxyandrostan-17-one oxime in sesame oil was administered by subcutaneous injections in the back of the rats, once daily. Two different sets of experiments were performed in hyperammonemic rats. In the first set four groups of rats were used: 1) control rats injected with vehicle; 2) hyperammonemic rats injected with vehicle; 3) control rats injected with 20 mg/Kg of 3α-ethynyl-3β-hydroxyandrostan-17-one oxime and 4) hyperammonemic rats injected with 20 mg/Kg of 3α-ethynyl-3β-hydroxyandrostan-17-one oxime.
# For the experiments using PCS rats, the following groups of rats were used: 1) Sham rats injected with vehicle; 2) PCS rats injected with vehicle; 3-4) PCS rats injected with 0.7 or 2.5 mg/Kg of 3α-ethynyl-3β-hydroxyandrostan-17-one oxime. The number of rats used in each experiment is either shown in the corresponding Figure or given in the description of the corresponding Figure.
# Blood ammonia was measured using the kit II Ammonia Arkray test (PocketChem BA, Arkray) using 20 μL of fresh blood following manufacturer's specifications.
# PCS rats = experiment: Beam walking test, PCS rats (Example 8); assay type: in vivo, rat
# Experimental: as §1, §2
# as §3, with “oxime. […]” for “oxime.”
# Motor coordination was tested as described by Gonzalez-Usano et al (ACS Chemical Neuroscience, 2014, 19, 5(2), 100-105) using a wooden beam (20 mm diameter). Rats were made to traverse a one-meter-long wooden beam located approximately one meter above the ground, and the number of foot faults (slips) was recorded by two observers. The rats were trained for the test by being made to traverse the beam up to five times before measurements were recorded. […]
# hyperammonemic rats [2] = experiment: Spatial learning in the Radial maze, chronic hyperammonemia model (Example 2); assay type: in vivo, rat; settings: 20 mg/kg s.c. once daily, 6th-7th week of treatment
# Text: (§4) In this study an animal model of chronic hyperammonemia was used that reproduces many of the cognitive and motor alterations present in hepatic encephalopathy. Rats were fed with ammonia in their food and after two weeks with ammonia enriched food they developed symptoms of hepatic encephalopathy. The beam walking test was made during the 3rd and 4th week of 3α-ethynyl-3β-hydroxyandrostan-17-one oxime treatment while the Morris Water maze test was made during 4th-5th week of 3α-ethynyl-3β-hydroxyandrostan-17-one oxime treatment and the Radial maze test was made during 6th-7th week of 3α-ethynyl-3β-hydroxyandrostan-17-one oxime treatment.
# (§5) The study was divided into two series with animals (male Wistar rats), each series included the following groups; Controls treated with vehicle (CV, n=8 per series), Controls treated with 3α-ethynyl-3β-hydroxyandrostan-17-one oxime (C+GAM, n=8 per series), hyperammonemic rats treated with vehicle (HAV, n=8 per series), hyperammonemic rats treated with 3α-ethynyl-3β-hydroxyandrostan-17-one oxime (HA+GAM, n=8 per series). […]
# Training in the radial maze was composed of five blocks of three trials each, performed on ten consecutive days. […] The number of spatial reference errors and working memory were calculated and expressed as number of reference and working errors per block. […]
# hyperammonemic rats [3] = experiment: Motor coordination in the beam walking test, chronic hyperammonemia model (Example 4); assay type: in vivo, rat; settings: 20 mg/kg s.c. once daily, 3rd-4th week of treatment
# Text: as §4, §5
# In the beam-walking test rats are trained to traverse an elevated, narrow beam to reach an enclosed escape platform. […] The parameters of motor coordination measured are: footslips (or foot faults) and latency to traverse the beam. […] The number of times the left or right hind paw slip off the beam was recorded for each trial.
compound,measurement,setting,value
C#C[C@]1(O)CC[C@@]2(C)C(CC[C@@H]3[C@@H]2CC[C@]2(C)/C(=N\O)CC[C@@H]32)C1 (stereo partly drawn) [3α-ethynyl-3β-hydroxyandrostan-17-one oxime],fraction unbound,"[1]; pH 7.4, HA rats",0.007
same,fraction unbound,"[1]; pH 7.4, PCS rats",0.0143
same,Blood ammonia,blood ammonia; 0.7 mg/Kg,302 ± 30 µM
same,Blood ammonia,blood ammonia; 2.5 mg/Kg,294 ± 37 µM
same,"Number of slips, beam walking test",PCS rats; 0.7 mg/kg s.c. once daily,0.75±0.10 slips
same,"Number of slips, beam walking test",PCS rats; 2.5 mg/Kg s.c. once daily,0.8±0.1 slips
same,Spatial learning/memory in the Radial maze (working errors),hyperammonemic rats [2],completely restored
same,Motor in-coordination in the beam-walking test (slips),hyperammonemic rats [3],completely reversed motor in-coordination
